Experimental data from US20160338351A1, “(S)-ABSCISIC ACID DERIVATIVES FOR ENHANCED GRAPE COLORATION” (Valent BioSciences Corporation, priority 2015, published 2016).
Where a name gives a salt, the structure may show the parent alone.

What was measured:
Type in all cases: in vivo, Vitis vinifera
[1] = system: Crimson Seedless grape clusters; test: Field study, Example 1: visual rating of red grape coloration, % of berries with marketable color; conditions: for activity relative to S-ABA for enhancing grape coloration: from % marketable color data, 40 ppm vs 400 ppm S-ABA
Method: (§1) A field study was conducted in California to compare the efficacy of S-ABA to 3′-methyl-(S)-ABA in promoting red grape coloration. S-ABA and 3′-methyl-(S)-ABA were formulated as aqueous solutions of the corresponding potassium salt to the desired concentrations with the final pHs being between 6.5 and 7.2. Individual Crimson Seedless grape clusters were selected and tagged, with 20 tagged clusters per treatment. The treatments were applied as cluster-directed sprays using a trigger sprayer at 15 to 20 mL per cluster to ensured good coverage of the grapes. Application of 15 to 20 milliliters per cluster simulates application of about 109 gallons per acre directed at the approximately 40 clusters per vine in a vineyard with 518 vines per acre. Based on these estimates, Applicant determined the approximate grams per acre. The equation is as follows: 20 ml/cluster×40 cluster/vine=800 ml/vine×518 vine/acre=(414,400 ml/acre)/(1000 ml/liter)=414 liters/acre. An estimation of grams per acre was made by multiplying the mg per cluster with 20,720 clusters/acre (40 clusters/vine×518 vines/acre=20,720 clusters/acre).
(§2) Periodically after the treatments, the grape clusters were evaluated for color development by visual ratings over a six-week period. The coloration was graded on a 1 to 8 grading scale, where a rating of 1 has very little or no red color and a rating of 8 has a deep or dark red color. The percentages of berries that reached marketable red coloration for each cluster were averaged and recorded for each treatment. Additionally, representative berries from each treatment group were harvested about four weeks after treatment and analyzed for anthocyanin content.

[2] = system: Crimson Seedless grape clusters; test: Field study, Example 1: anthocyanin content of berries harvested about four weeks after treatment; conditions: for Total Anthocyanin Content: berries harvested about four weeks after treatment
Method: as §1, §2

Crimson Seedless grapes = test: Trial, Example 2: visual color rating of grape clusters on a 1 to 8 scale; design: key to Color Ratings: 1 = little/no red color, 8 = deep/dark red color; conditions: for Color Ratings: applied day 0 and day 11, 1 to 8 grading scale
Method: Another trial was conducted in California on Crimson Seedless grapes to compare the efficacy of S-ABA, 3′-methyl-(S)-ABA and 3′-propargyl-(S)-ABA in promoting coloration. All three compounds were formulated as aqueous solutions of the corresponding potassium salt to the desired concentrations, with the final pHs being between 6.5 and 7.2. Individual Crimson Seedless grape clusters were selected and tagged, with 20 tagged clusters per treatment. The solutions were applied as cluster-directed sprays using a trigger sprayer at 15 to 20 milliliters per cluster which ensured good coverage of the grapes. The treatments were applied on day 0 and day 11 of the trial. Periodically during the trial, the grape clusters were evaluated for color development by visual ratings over a six-week period and the coloration was graded on a 1 to 8 grading scale, where a rating of 1 has very little or no red color and a rating of 8 has a deep or dark red color.

CC1=C(C)[C@](O)(/C=C/C(C)=C\C(=O)O)C(C)(C)CC1=O [3′-methyl-(S)-ABA, K^+ salt, (2Z,4E)-5-((S)-1-hydroxy-2,3,6,6-tetramethyl-4-oxocyclohex-2-en-1-yl)-3-methylpenta-2,4-dienoic acid]
coloration effect compared with 6 to 8 mg per cluster (400 ppm) of S-ABA ([1]; 0.6 to 0.8 mg per cluster (40 ppm, 15 to 20 mL)): even more efficacious
Coloring Ratings, % of the berries with marketable color ([1]; 20 ppm, 0.3-0.4 mg/cluster, 6-8 grams/acre, 7 DAT): 34%
Coloring Ratings, % of the berries with marketable color ([1]; 20 ppm, 0.3-0.4 mg/cluster, 6-8 grams/acre, 14 DAT): 67%
Coloring Ratings, % of the berries with marketable color ([1]; 20 ppm, 0.3-0.4 mg/cluster, 6-8 grams/acre, 27 DAT): 79%
Coloring Ratings, % of the berries with marketable color ([1]; 20 ppm, 0.3-0.4 mg/cluster, 6-8 grams/acre, 33 DAT): 85%
Coloring Ratings, % of the berries with marketable color ([1]; 20 ppm, 0.3-0.4 mg/cluster, 6-8 grams/acre, 43 DAT): 89%
Coloring Ratings, % of the berries with marketable color ([1]; 40 ppm, 0.6-0.8 mg/cluster, 12-16 grams/acre, 7 DAT): 52%
Coloring Ratings, % of the berries with marketable color ([1]; 40 ppm, 0.6-0.8 mg/cluster, 12-16 grams/acre, 14 DAT): 83%
Coloring Ratings, % of the berries with marketable color ([1]; 40 ppm, 0.6-0.8 mg/cluster, 12-16 grams/acre, 27 DAT): 92%
Coloring Ratings, % of the berries with marketable color ([1]; 40 ppm, 0.6-0.8 mg/cluster, 12-16 grams/acre, 33 DAT): 95%
Coloring Ratings, % of the berries with marketable color ([1]; 40 ppm, 0.6-0.8 mg/cluster, 12-16 grams/acre, 43 DAT): 97%
Coloring Ratings, % of the berries with marketable color ([1]; 200 ppm, 3-4 mg/cluster, 60-80 grams/acre, 7 DAT): 72%
Coloring Ratings, % of the berries with marketable color ([1]; 200 ppm, 3-4 mg/cluster, 60-80 grams/acre, 14 DAT): 89%
Coloring Ratings, % of the berries with marketable color ([1]; 200 ppm, 3-4 mg/cluster, 60-80 grams/acre, 27 DAT): 95%
Coloring Ratings, % of the berries with marketable color ([1]; 200 ppm, 3-4 mg/cluster, 60-80 grams/acre, 33 DAT): 95%
Coloring Ratings, % of the berries with marketable color ([1]; 200 ppm, 3-4 mg/cluster, 60-80 grams/acre, 43 DAT): 100%
Coloring Ratings, % of the berries with marketable color ([1]; 400 ppm, 6-8 mg/cluster, 120-160 grams/acre, 7 DAT): 76%
Coloring Ratings, % of the berries with marketable color ([1]; 400 ppm, 6-8 mg/cluster, 120-160 grams/acre, 14 DAT): 98%
Coloring Ratings, % of the berries with marketable color ([1]; 400 ppm, 6-8 mg/cluster, 120-160 grams/acre, 27 DAT): 99%
Coloring Ratings, % of the berries with marketable color ([1]; 400 ppm, 6-8 mg/cluster, 120-160 grams/acre, 33 DAT): 99%
Coloring Ratings, % of the berries with marketable color ([1]; 400 ppm, 6-8 mg/cluster, 120-160 grams/acre, 43 DAT): 99%
marketable coloration ([1]; 400 ppm, 6 to 8 mg per cluster, 15 to 20 mL, in two weeks): ~90%
activity relative to S-ABA for enhancing grape coloration [1]: approximately 10 times
activity relative to S-ABA for enhancing grape coloration ([1]; listed as 3′-methyl-(S)-abscisic acid): ten times as effective as S-ABA
Total Anthocyanin Content ([2]; 0.3-0.4 mg/cluster (20 ppm, 15-20 mL)): 68 mg/L
Total Anthocyanin Content ([2]; 0.6-0.8 mg/cluster (40 ppm, 15-20 mL)): 78 mg/L
Total Anthocyanin Content ([2]; 3-4 mg/cluster (200 ppm, 15-20 mL)): 181 mg/L
Total Anthocyanin Content ([2]; 6-8 mg/cluster (400 ppm, 15-20 mL)): 247 mg/L
activity relative to S-ABA in promoting Crimson Seedless grape coloration ([2]; from anthocyanin analysis of Table 2): approximately 10 times
calculated relative potency versus S-ABA ([2]; rate of S-ABA needed to achieve the same effect): 8.4 times
Color Ratings (Crimson Seedless grapes; 4 ppm, 0.06-0.08 mg/cluster, 1.2-1.6 g/acre, 3 DAT): 1
Color Ratings (Crimson Seedless grapes; 4 ppm, 0.06-0.08 mg/cluster, 1.2-1.6 g/acre, 10 DAT): 1.6
Color Ratings (Crimson Seedless grapes; 4 ppm, 0.06-0.08 mg/cluster, 1.2-1.6 g/acre, 14 DAT): 1.9
Color Ratings (Crimson Seedless grapes; 4 ppm, 0.06-0.08 mg/cluster, 1.2-1.6 g/acre, 21 DAT): 2.4
Color Ratings (Crimson Seedless grapes; 4 ppm, 0.06-0.08 mg/cluster, 1.2-1.6 g/acre, 31 DAT): 2.7
Color Ratings (Crimson Seedless grapes; 4 ppm, 0.06-0.08 mg/cluster, 1.2-1.6 g/acre, 41 DAT): 2.8
Color Ratings (Crimson Seedless grapes; 20 ppm, 6-8 g/acre, 3 DAT): 1.3
Color Ratings (Crimson Seedless grapes; 20 ppm, 6-8 g/acre, 10 DAT): 1.7
Color Ratings (Crimson Seedless grapes; 20 ppm, 6-8 g/acre, 14 DAT): 2.3
Color Ratings (Crimson Seedless grapes; 20 ppm, 6-8 g/acre, 21 DAT): 2.9
Color Ratings (Crimson Seedless grapes; 20 ppm, 6-8 g/acre, 31 DAT): 3.5
Color Ratings (Crimson Seedless grapes; 20 ppm, 6-8 g/acre, 41 DAT): 3.5
Color Ratings (Crimson Seedless grapes; 40 ppm, 0.6-0.8 mg/cluster, 12-16 g/acre, 3 DAT): 1.1
Color Ratings (Crimson Seedless grapes; 40 ppm, 0.6-0.8 mg/cluster, 12-16 g/acre, 10 DAT): 1.3
Color Ratings (Crimson Seedless grapes; 40 ppm, 0.6-0.8 mg/cluster, 12-16 g/acre, 14 DAT): 2.7
Color Ratings (Crimson Seedless grapes; 40 ppm, 0.6-0.8 mg/cluster, 12-16 g/acre, 21 DAT): 3.9
Color Ratings (Crimson Seedless grapes; 40 ppm, 0.6-0.8 mg/cluster, 12-16 g/acre, 31 DAT): 4.7
Color Ratings (Crimson Seedless grapes; 40 ppm, 0.6-0.8 mg/cluster, 12-16 g/acre, 41 DAT (end of six-week evaluation)): 5.5
potency in promoting red color development compared with another compound (Crimson Seedless grapes; Crimson Seedless grapes): more effective than S-ABA
red color development in comparison with the untreated control (Crimson Seedless grapes; six-week evaluation period): dose-dependent accelerated red color development
